From US10676519B2, “Chimeric proteins and their use in identifying anti-deubiquitinase compounds” (The Florida State University Research Foundation, Inc., priority 2017, dated 2020)

What was measured:
[1] = tested on: counterscreen strain (yeast with UBP6 intact); experiment: DMSO tolerance of the counterscreen yeast strain, growth in microtiter plates; type: cell-based, Saccharomyces cerevisiae; details: counterscreen strain (FIG. 4B); concentrations of DMSO up to 1%; cell density monitored over 24 hours; sextuplicate
From the text: (§1) In baker's yeast (S. cerevisiae), deletion of the endogenous yeast Rpn11 gene is lethal, but inhibition of Rpn11 deubiquitinating activity is not. Inhibition of Rpn11 activity is lethal only when a second deubiquitinase, UBP6, is deleted (FIG. 2A). Importantly, this synthetic lethal relationship is maintained in yeast harboring hRpn11 (FIG. 3). Thus, a selective inhibitor of human Rpn11 would be lethal in the hRpn11 strain lacking UBP6 (primary screen strain), but nontoxic in a strain containing UBP6 and harboring inactivating point mutations in hRpn11 (counterscreening strain) (FIG. 2B). By measuring cell growth in the presence of potential inhibitors using any commercially available plate reader, a high throughput cell-based screen for compounds selectively inhibiting hRpn11 can be enacted.
(§2) Many high throughput screens include a library of chemical compounds having different solubility in different solvents. A common solvent used to solve this issue is dimethyl sulfoxide (“DMSO”). However, DMSO can be toxic to biological cells. Thus, it is advantageous if the biological cell is resistant to levels of DMSO which are used to dissolve compounds in a library. […]
(§3) In a fourth example, yeast strains were evaluated for tolerance of a commonly used solvent in high throughput screens. […] Cell density was monitored over 24 hours as an indicator of cell growth.

[2] = tested on: primary screen strain (yeast with hRpn11, UBP6 deleted); experiment: DMSO tolerance of the primary screen yeast strain, growth in microtiter plates; type: cell-based, Saccharomyces cerevisiae; details: primary screen strain (FIG. 4A); concentrations of DMSO up to 1%; cell density monitored over 24 hours; sextuplicate
From the text: as §1, §2, §3

Compound: C[S+](C)[O-] [DMSO, dimethylsulfoxide]
- differences in growth rate, time to saturation, or saturation cell density [1]: No statistical differences
- differences in growth rate, time to saturation, or saturation cell density [2]: No statistical differences
